SMILES strings stand for the structures.

These results are taken from patent publication US20260207621A1 (Vividion Therapeutics, Inc., priority 2022, published 2026).

Experiment [1] addresses T1, KEAP1 C151 (Homo sapiens, UniProt Q14145).
T1 construct: treating 500 μg of cell lysate generated from MDA-MB-468 breast cancer cells with DMSO or compound; endogenous in cells; host or cells: MDA-MB-468 breast cancer cell lysate
Nature of the experiment: Nrf2 TMT measurement: in vitro TE50 for KEAP1 C151 (IA-DTB competition, targeted TMT mass spectrometry) in MDA-MB-468 cell lysate. The conditions noted are these: in vitro target engagement of KEAP1 C151, targeted TMT, read-out: KEAP1_C151 TE50. It is filed as binding. An outline of the steps: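 MDA-MB-468 lysate (500 μg) treated with compound for 1 h at room temperature, then 200 μM IA-DTB for 1 h. Labeled peptides streptavidin-enriched after trypsin digest, TMT-labeled and quantified by targeted MS3 on the KEAP1 C151 peptide. IC50 from dose-response curve fitting.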

Experiment [2] relates to Nrf2. Briefly: Nrf2 antagonism assay: ARE luciferase reporter in KYSE-70 cells. It is filed as cell-based. The conditions noted are these: Homo sapiens, KYSE-70, KYSE-70 cells, positive Imax corresponds to Nrf2 antagonism, read-out: KYSE70 Cellular ARE Luciferase Imax (%). The method, boiled down: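 KYSE-70 esophageal squamous carcinoma cells carrying Nrf2 W24C (constitutively Nrf2-high) with an ARE-driven luciferase reporter. Loss of luciferase signal reflects Nrf2 antagonism via KEAP1 C151 engagement. IC50 and Imax come from dose-response curves; positive Imax means antagonism.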
Background: In a reporter assay the amount or activity of a reporter protein is the signal.

T1 sequence (Q14145 whole entry): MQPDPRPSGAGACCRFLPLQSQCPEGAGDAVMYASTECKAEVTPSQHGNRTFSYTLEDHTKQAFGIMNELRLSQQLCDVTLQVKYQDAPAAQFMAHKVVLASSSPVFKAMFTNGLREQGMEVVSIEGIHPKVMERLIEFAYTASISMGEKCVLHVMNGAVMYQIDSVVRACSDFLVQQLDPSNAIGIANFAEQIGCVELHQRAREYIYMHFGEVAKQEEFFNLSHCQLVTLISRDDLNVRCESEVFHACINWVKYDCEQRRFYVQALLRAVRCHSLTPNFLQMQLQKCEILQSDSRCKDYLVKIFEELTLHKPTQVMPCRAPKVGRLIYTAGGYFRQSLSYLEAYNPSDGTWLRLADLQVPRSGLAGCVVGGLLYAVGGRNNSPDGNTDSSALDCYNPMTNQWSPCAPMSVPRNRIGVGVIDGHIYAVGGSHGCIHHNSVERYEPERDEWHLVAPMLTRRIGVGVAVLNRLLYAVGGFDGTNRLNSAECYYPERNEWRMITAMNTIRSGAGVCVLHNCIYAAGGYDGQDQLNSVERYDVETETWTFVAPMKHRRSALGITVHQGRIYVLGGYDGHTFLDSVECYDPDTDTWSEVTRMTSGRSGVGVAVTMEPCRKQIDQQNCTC

Regarding `C=CC(=O)N1CCOCC1c1cc(Cl)cc(-c2cc(C(N)=O)n3ccnc3c2)c1` (single isomer, unassigned) [Compound 85, 7-(3-(4-acryloylmorpholin-3-yl)-5-chlorophenyl)imidazo[1,2-a]pyridine-5-carboxamide], in experiment [1], the IC50 was 36 nM. Also, the Emax in experiment [2] came out at 89%.
For `C=CC(=O)N1CCOC[C@H]1c1cc(Cl)cc(-c2cc(OC)ncn2)c1` (single isomer, unassigned) [Compound 86], the IC50 in experiment [1] was determined as 7.3 nM. For the same compound, the Emax in experiment [2] came out at 83%.
In the case of `C=CC(=O)N1CCOC[C@H]1c1cc(Cl)cc(-c2nccc(C)n2)c1` (single isomer, unassigned) [Compound 87], the IC50 in experiment [1] is 10 nM. Moreover, the Emax in experiment [2] was 81%.
On to `C=CC(=O)N1CCOC[C@H]1c1cc(Cl)cc(-c2nccc(OC)n2)c1` (single isomer, unassigned) [Compound 88], for which the IC50 in experiment [1] is 14 nM. Further, in experiment [2], the Emax stood at 85%.
On to `C=CC(=O)N1CCOCC1c1cc(Cl)cc(-c2ccnc(C(N)=O)n2)c1` (single isomer, unassigned) [Compound 89, 4-(3-(4-acryloylmorpholin-3-yl)-5-chlorophenyl)pyrimidine-2-carboxamide], for which, in experiment [1], the IC50 is 36 nM. Besides, in experiment [2], the Emax is 73%.
The corresponding values for `C=CC(=O)N1CCOC[C@H]1c1cc(Cl)cc(-c2ccnc(C)c2)c1` (single isomer, unassigned) [Compound 90] are 120 nM and 81%.
Turning to `C=CC(=O)N1CCOC[C@H]1c1cc(Cl)cc(-c2ccnc(OC)c2)c1` (single isomer, unassigned) [Compound 91], in experiment [1], the IC50 was found to be 11 nM. In addition, the Emax in experiment [2] was 82%.
The corresponding values for `C=CC(=O)N1CCOC[C@H]1c1cc(Cl)cc(-c2ncc(N)cn2)c1` (single isomer, unassigned) [Compound 92] are 23 nM and 94%.
Consider `C=CC(=O)N1CCOC[C@H]1c1cc(Cl)cc(-c2nc(C)cc(C)n2)c1` (single isomer, unassigned) [Compound 93], for which the IC50 in experiment [1] was determined as 40 nM. The Emax in experiment [2] came to 91%.
Turning to `C=CC(=O)N1CCOCC1c1cc(Cl)cc(-c2cc(=O)[nH]cn2)c1` (single isomer, unassigned) [Compound 94, 6-(3-(4-acryloylmorpholin-3-yl)-5-chlorophenyl)pyrimidin-4(3H)-one], the IC50 in experiment [1] is 16 nM. In addition, the Emax in experiment [2] is 87%.
On to `C=CC(=O)N1CCOC[C@H]1c1cc(Cl)cc(-c2nc(C)cc(N)n2)c1` (single isomer, unassigned) [Compound 95], for which, in experiment [1], the IC50 was determined as 25 nM. The Emax in experiment [2] was 94%.
The corresponding values for `C=CC(=O)N1CCOC[C@H]1c1cc(Cl)cc(-c2nccc(N)n2)c1` (single isomer, unassigned) [Compound 96] are 20 nM and 94%.
As for `C=CC(=O)N1CCOC[C@H]1c1cc(Cl)cc(-c2ccnc3[nH]ccc23)c1` (single isomer, unassigned) [Compound 97], the IC50 in experiment [1] was determined as 23 nM. Further, the Emax in experiment [2] worked out at 86%.
In the case of `C=CC(=O)N1CCOC[C@H]1c1cc(Cl)cc(-c2cccc(C)n2)c1` (single isomer, unassigned) [Compound 98], in experiment [1], the IC50 is 26 nM. In addition, the Emax in experiment [2] was 76%.
Turning to `C=CC(=O)N1CCOC[C@H]1c1cc(Cl)cc(-c2cccc(OC)n2)c1` (single isomer, unassigned) [Compound 100], the IC50 in experiment [1] worked out at 140 nM. For the same compound, in experiment [2], the Emax amounted to 78%.
For `C=CC(=O)N1CCOC[C@H]1c1cc(Cl)cc(-c2ncc(C)cn2)c1` (single isomer, unassigned) [Compound 101], the IC50 in experiment [1] worked out at 24 nM. In addition, in experiment [2], the Emax stood at 87%.
In the case of `C=CC(=O)N1[C@H](C)COC[C@H]1c1cc(Cl)cc(-c2ncnc(N)n2)c1` (single isomer, unassigned) [Compound 102], the IC50 in experiment [1] is 43.2 nM. In addition, the Emax in experiment [2] was 92%.
For the compound `C=CC(=O)N1CCOC[C@H]1c1cc(Cl)cc(-c2ncc(OC)cn2)c1` (single isomer, unassigned) [Compound 103], the IC50 in experiment [1] was 17 nM. For the same compound, the Emax in experiment [2] came to 85%.
Take `C=CC(=O)N1CCOC[C@H]1c1cc(Cl)cc(-c2cc(C)ccn2)c1` (single isomer, unassigned) [Compound 104]: in experiment [1], the IC50 came to 45 nM. For the same compound, the Emax in experiment [2] came to 91%.
Regarding `C=CC(=O)N1CCOC[C@H]1c1cc(Cl)cc(-c2cc(OC)ccn2)c1` (single isomer, unassigned) [Compound 105], the IC50 in experiment [1] turned out to be 36 nM. In addition, the Emax in experiment [2] amounted to 92%.
As for `C=CC(=O)N1CCOC[C@H]1c1cc(Cl)cc(-c2ccnc(C#N)n2)c1` (single isomer, unassigned) [Compound 106], in experiment [1], the IC50 turned out to be 37 nM. Also, the Emax in experiment [2] was 67%.
The corresponding values for `C=CC(=O)N1CCOCC1c1cc(Cl)cc(-c2cc(C(N)=O)ncn2)c1` (single isomer, unassigned) [Compound 107, 6-(3-(4-acryloylmorpholin-3-yl)-5-chlorophenyl)pyrimidine-4-carboxamide] are 18 nM and 92%.
The corresponding values for `C=CC(=O)N1CC(C)(C)OCC1c1cc(Cl)nc(-c2ccnc(C)n2)c1` (single isomer, unassigned) [Compound 120, 1-(5-(2-chloro-6-(2-methylpyrimidin-4-yl)pyridin-4-yl)-2,2-dimethylmorpholino)prop-2-en-1-one] are 110 nM and 77%.
On to `C=CC(=O)N1CCOCC1c1cc(Cl)nc(-c2ccnc(C)n2)c1` (single isomer, unassigned) [Compound 121, 1-(3-(2-chloro-6-(2-methylpyrimidin-4-yl)pyridin-4-yl)morpholino)prop-2-en-1-one], for which the IC50 in experiment [1] was 26 nM. The Emax in experiment [2] amounted to 82%.
As for `C=CC(=O)N1CC2(CC2)OCC1c1cc(Cl)cc(-c2ccnc(C(N)=O)c2)c1` (single isomer, unassigned) [Compound 122, 4-(3-(7-acryloyl-4-oxa-7-azaspiro[2.5]octan-6-yl)-5-chlorophenyl)picolinamide], the IC50 in experiment [1] is 11 nM. In experiment [2], the Emax is 88%.
As to `C=CC(=O)N1CCN(S(C)(=O)=O)C[C@H]1c1cc(Cl)cc(-c2ncnc(N)n2)c1` (single isomer, unassigned) [Compound 123], in experiment [1], the IC50 turned out to be 13 nM. The Emax in experiment [2] is 73%.
The corresponding values for `C=CC(=O)N1CCN(S(C)(=O)=O)C[C@H]1c1cc(Cl)cc(-c2ccnc(N)n2)c1` (single isomer, unassigned) [Compound 124] are 18 nM and 72%.
The corresponding values for `C=CC(=O)N1CCOCC1c1cc(Cl)nc(-c2cc(C(N)=O)ncn2)c1` (single isomer, unassigned) [Compound 125, 6-(4-(4-acryloylmorpholin-3-yl)-6-chloropyridin-2-yl)pyrimidine-4-carboxamide] are below 6.4 nM and 91%.
As for `C=CC(=O)N1CCOC[C@H]1c1cc(Cl)cc(-c2ccncc2)c1` (single isomer, unassigned) [Compound 126], the IC50 in experiment [1] is 50 nM. The Emax in experiment [2] is 72%.
Take `C=CC(=O)N1CCOC[C@H]1c1cc(Cl)cc(-c2ccc(N)nn2)c1` (single isomer, unassigned) [Compound 128]: the IC50 in experiment [1] stood at 120 nM. For the same compound, the Emax in experiment [2] was determined as 70%.
Turning to `C=CC(=O)N1CCOCC1c1cc(Cl)nc(-c2cc(C#N)ncn2)c1` (single isomer, unassigned) [Compound 129, 6-(4-(4-acryloylmorpholin-3-yl)-6-chloropyridin-2-yl)pyrimidine-4-carbonitrile], the IC50 in experiment [1] came out at 79 nM. Also, the Emax in experiment [2] amounted to 84%.
The corresponding values for `C=CC(=O)N1[C@H](C)COC[C@H]1c1cc(Cl)cc(-c2ncc(N)cn2)c1` (single isomer, unassigned) [Compound 130] are 94 nM and 89%.
As to `C=CC(=O)N1[C@H](C)COC[C@H]1c1cc(Cl)cc(-c2cc(N)ncn2)c1` (single isomer, unassigned) [Compound 131], the IC50 in experiment [1] came to 300 nM. The Emax in experiment [2] was 91%.
For the compound `C=CC(=O)N1CCOC[C@H]1c1cc(Cl)cc(-c2cc(N)cnn2)c1` (single isomer, unassigned) [Compound 132], the IC50 in experiment [1] was below 6.4 nM. In addition, the Emax in experiment [2] amounted to 78%.
Consider `C=CC(=O)N1CC(C)(C)OC[C@H]1c1cc(Cl)cc(-c2ccnc(C(N)=O)c2)c1` (single isomer, unassigned) [Compound 133], for which the IC50 in experiment [1] was 72 nM. The Emax in experiment [2] was 85%.
Regarding `C=CC(=O)N1[C@H](C)COC[C@H]1c1cc(Cl)cc(-c2ccnc(C(N)=O)c2)c1` (single isomer, unassigned) [Compound 134], the IC50 in experiment [1] was determined as 63 nM. Also, the Emax in experiment [2] is 85%.
Take `C=CC(=O)N1CCOC[C@H]1c1cc(Cl)cc(-c2ccnc(N)c2)c1` (single isomer, unassigned) [Compound 136]: the IC50 in experiment [1] is 52 nM. Further, the Emax in experiment [2] came out at 81%.
On to `C=CC(=O)N1[C@H](C)COC[C@H]1c1cc(Cl)cc(-c2ncnc3[nH]cnc23)c1` (single isomer, unassigned) [Compound 137], for which, in experiment [1], the IC50 was 25 nM. Besides, the Emax in experiment [2] was found to be 92%.
For the compound `C=CC(=O)N1[C@H](C)COC[C@H]1c1cc(Cl)nc(-c2ccn3ccnc3c2)c1` (single isomer, unassigned) [Compound 138], the IC50 in experiment [1] was 41 nM. In addition, the Emax in experiment [2] turned out to be 75%.
